{"source": "paper PMC2714906", "about": "(Endocrine, 2009)", "key": {"[1]": {"tested_on": "IV NPY cardiovascular response", "assay": "BIBO3304 effect on IV NPY, NPY analog and ANG II cardiovascular responses", "type": "in vivo, rat (Sprague Dawley)", "details": "for PRE vs POST BIBO3304 pressor response, in words: IV peptide"}, "[2]": {"tested_on": "IV γ-MSH cardiovascular response", "assay": "BIBO3304 effect on IV γ-MSH and γ-MSH6–12 cardiovascular responses", "type": "in vivo, rat (Sprague Dawley)"}, "other Y receptors": {"tested_on": "other Y receptors", "details": "cited from earlier work; for Effects at other Y receptors, in words: ref [15]; for Binding to other Y receptors, in words: ref [23]"}, "NPFF receptors": {"tested_on": "NPFF receptors", "details": "ref [16]–[19]; cited from earlier work"}, "[3]": {"details": "cited from earlier work; for Effect on central regulation of feeding behavior, in words: peripheral administration, ref [15], [45]"}, "[4]": {"assay": "IV peptide MAP and HR cardiovascular responses in urethane-anesthetized rats", "type": "in vivo, rat (Sprague Dawley)", "details": "for Increase in MAP: IV, compare Fig. 5a with Fig. 4b; for Increase in MAP / Cardiovascular response (MAP and HR), in words: rats; for Cardiovascular response (MAP and HR), in words: IV γ-MSH 15 nmol or NPY 5 nmol"}, "[5]": {"details": "cited from earlier work"}, "rat Y1 receptor": {"tested_on": "rat Y1 receptor", "assay": "Rat Y1 receptor binding, competition with 125I-pPYY", "details": "competition with iodinated PYY; CHO cells expressing rat Y1 receptor"}, "[6]": {"tested_on": "sensory neuron-specific receptor (SNSR1)", "details": "ref [65], [66]; cited from earlier work"}, "Y1 receptor": {"tested_on": "Y1 receptor", "type": "cell-based", "details": "50 nM, HEK tsA201 cells expressing Y1 receptor and N-type VDCC; for Reduction of IBa (N-type VDCC barium current): whole-cell, 22°C, pH 7.20"}, "[7]": {"details": "ref [8], cited from earlier work"}, "[8]": {"tested_on": "sensory neuron-specific receptor (SNSR1)", "details": "ref [65], [66]; cited from earlier work", "remark": "listed apart in the source"}, "[9]": {"details": "ICV BIBO3304, NPY 5 nmol IV, PRE vs POST, n = 7"}, "[10]": {"details": "central BIBO3304, summary in Discussion"}, "[11]": {"details": "NPY 5 nmol IV, change from baseline, mean ± standard error"}}, "note": "Entries after “also recorded” stand apart in the source; their conditions may differ."}
{"compound": "NC(=O)NCc1ccc(CNC(=O)[C@@H](CCCN=C(N)N)NC(=O)C(c2ccccc2)c2ccccc2)cc1", "note": "[BIBO3304]", "values": [{"measurement": "Area under the MAP response curve, effect of BIBO3304, in words", "setting": "[1]; ICV BIBO3304, IV NPY agonists 5 nmol", "result": "Only the area under the NPY MAP response curve is reduced by drug treatment"}, {"measurement": "Effect on IV NPY cardiovascular response, in words", "setting": "[1]; ICV BIBO3304, NPY 5 nmol IV", "result": "significant decrease in the IV NPY cardiovascular response; also recorded: blood pressure responses of NPY are significantly reduced"}, {"measurement": "Decrease in IV NPY-induced MAP response", "setting": "[1]; [9]", "result": "> 40", "unit": "%"}, {"measurement": "Decrease in total NPY pressor response (MAP curve area)", "setting": "[1]; [9]", "result": "> 70", "unit": "%"}, {"measurement": "Effect on γ-MSH6–12 and NPY-CVa MAP responses, in words", "setting": "[1]; ICV BIBO3304, two graded doses of either peptide IV (Fig. 5a)", "result": "produced significant MAP reductions for both doses of either peptide"}, {"measurement": "Effect on (D-Arg25) NPY MAP / total pressor response, in words", "setting": "[1]; ICV or IV BIBO3304, (D-Arg25) NPY IV", "result": "did not change the MAP response of D-Arg25 NPY; also recorded: did not significantly affect the MAP response or total pressor response of a Y1 receptor agonist (D-Arg25) NPY; also recorded: no significant effect on D-Arg25 NPY"}, {"measurement": "Effect on γ-MSH6–12 and NPY-CVa MAP responses, in words (IV BIBO3304)", "setting": "[1]; IV BIBO3304, two graded doses IV (Fig. 5b)", "result": "significant reductions in MAP for both doses of γ-MSH6–12 and NPY-CVa"}, {"measurement": "Effect on IV NPY-CVa cardiovascular activity, in words", "setting": "[1]; central or peripheral BIBO3304, NPY-CVa IV", "result": "IV NPY-CVa cardiovascular activity was sensitive to central or peripheral BIBO3304 administration"}, {"measurement": "Reduction of IV NPY-CVa pressor response", "setting": "[1]; central or systemic BIBO3304, NPY-CVa 5 or 20 nM doses (so in the source) IV", "result": "up to 55%"}, {"measurement": "Attenuation of total γ-MSH pressor response (MAP curve area, height × width)", "setting": "[2]; ICV BIBO3304, IV γ-MSH, PRE vs POST, n = 7", "result": "> 60", "unit": "%"}, {"measurement": "Attenuation of MAP response of γ-MSH or γ-MSH6–12 (either peptide)", "setting": "[2]; ICV BIBO3304, several IV doses of γ-MSH and γ-MSH6–12, subsequent study", "result": "> 50", "unit": "%"}, {"measurement": "Attenuation of pressor responses of γ-MSH and γ-MSH6–12, in words", "setting": "[2]; IV or ICV BIBO3304, peptide IV", "result": "significantly attenuated the pressor responses of γ-MSH and the γ-MSH analog"}, {"measurement": "Reduction in total γ-MSH pressor response", "setting": "[2]; central BIBO3304, IV γ-MSH, summary in Discussion", "result": 75, "unit": "%"}, {"measurement": "Inhibition of HR response to several IV γ-MSH doses", "setting": "[2]; [10]", "result": "~50", "unit": "%"}, {"measurement": "Inhibition of peak MAP response to several IV γ-MSH doses", "setting": "[2]; [10]", "result": "~50", "unit": "%"}, {"measurement": "Change in baseline cardiovascular parameters", "setting": "[2]; central or peripheral BIBO3304 alone, n = 7", "result": "no significant changes in any baseline cardiovascular parameters"}, {"measurement": "Effects at other Y receptors, in words", "setting": "other Y receptors", "result": "not reported to have significant effects at other Y receptors"}, {"measurement": "Binding to other Y receptors, in words", "setting": "other Y receptors", "result": "none of these receptors shows significant binding of BIBO3304"}, {"measurement": "Binding at NPFF receptors, in words", "setting": "NPFF receptors", "result": "nanomolar-binding efficacy at NPFF receptors"}, {"measurement": "Effect on central regulation of feeding behavior, in words", "setting": "[3]", "result": "affects central regulation of feeding behavior"}]}
{"compound": "NC(N)=NCCC[C@@H](NC(=O)C(c1ccccc1)c1ccccc1)C(=O)NCc1ccc(O)cc1", "note": "[BIBP3226]", "values": [{"measurement": "Effects at other Y receptors, in words", "setting": "other Y receptors", "result": "not reported to have significant effects at other Y receptors"}, {"measurement": "Binding at NPFF receptors, in words", "setting": "NPFF receptors", "result": "nanomolar-binding efficacy at NPFF receptors"}, {"measurement": "Effect on central regulation of feeding behavior, in words", "setting": "[3]", "result": "affects central regulation of feeding behavior"}]}
{"compound": "(D-Arg25) NPY", "values": [{"measurement": "PRE vs POST BIBO3304 pressor response, in words", "setting": "[1]; ICV or IV BIBO3304, listed as (D-Arg^25) NPY", "result": "not significantly different"}, {"measurement": "PRE vs POST BIBO3304 pressor response, in words", "setting": "[1]; ICV or IV BIBO3304, listed as D-Arg25 NPY", "result": "lack of a significant difference in the PRE and POST cardiovascular responses"}]}
{"compound": "Des-AA10–17-cyclo-7/21[Cys7,21, Pro34] NPY [NPY-CVa]", "values": [{"measurement": "Increase in MAP", "setting": "[4]; mean ± standard error", "result": "26 ± 3", "unit": "mmHg"}, {"measurement": "Pressor activity of NPY-CVa, in words", "setting": "[5]; ref [26]", "result": "significant pressor activity"}, {"measurement": "Binding to other Y receptors, in words", "setting": "other Y receptors", "result": "significant binding to other Y receptors"}, {"measurement": "Orexigenic activity, in words", "setting": "[3]; ref [23], [26]", "result": "without orexigenic activity; also recorded: lacks Y1-like orexigenic activity"}]}
{"compound": "FMRFamide", "values": [{"measurement": "Competition for rat Y1 receptor binding, in words", "setting": "rat Y1 receptor", "result": "failed to bind to these receptors; also recorded: Neither γ-MSH nor FMRFamide (a model RFamide peptide) competed with iodinated PYY for binding to the rat Y1 receptors"}]}
{"compound": "angiotensin II [ANG II]", "values": [{"measurement": "Peak MAP response, POST ICV BIBO3304", "setting": "[1]; IV ANG II 5 nmol, POST, mean ± standard error", "result": "54 ± 2", "unit": "mmHg"}, {"measurement": "Peak MAP response, PRE ICV BIBO3304", "setting": "[1]; IV ANG II 5 nmol, PRE, mean ± standard error", "result": "66 ± 6", "unit": "mmHg"}, {"measurement": "PRE vs POST BIBO3304 pressor response, in words", "setting": "[1]; ICV or IV BIBO3304", "result": "not significantly different at pre and post central BIBO3304 administration"}, {"measurement": "PRE vs POST BIBO3304 pressor response, in words", "setting": "[1]; ICV or IV BIBO3304, listed as AII", "result": "not significantly different"}]}
{"compound": "gamma-melanocyte stimulating hormone [γ-MSH]", "values": [{"measurement": "SNSR1 activation", "setting": "[6]", "result": "~40", "unit": "nM"}, {"measurement": "Cardiovascular response (MAP and HR), in words", "setting": "[4]", "result": "produced both pressor and cardioaccelerator effects, with no evidence of a baroreceptor-mediated bradycardia; also recorded: produces a marked pressor and tachycardia response"}, {"measurement": "Pressor response after forebrain CVO lesions, in words", "setting": "[5]; IV, forebrain CVO lesions, ref [42]", "result": "attenuation of the IV γ-MSH cardiovascular response"}, {"measurement": "Rightward shift of pressor dose–response curve", "setting": "[5]; carotid versus femoral artery administration, ref [31]", "result": 10, "unit": "fold"}, {"measurement": "Mechanism of MAP and HR effects / baroreceptor reflex, in words", "setting": "[5]; ref [9]–[11], [33]", "result": "total inhibition of the baroreceptor reflex; also recorded: MAP and HR effects are due to an increase in preganglionic sympathetic drive, with no contribution of adrenal medullary catecholamine release"}, {"measurement": "Effect on N-type VDCC / IBa, in words", "setting": "Y1 receptor", "result": "does not affect Y1 receptor agonist binding capacity or signaling; also recorded: did not bind to or allosterically regulate the Y1 receptor; also recorded: neither γ-MSH nor γ-MSH6–12 affected VDCC activity; also recorded: did not produce a significant inhibition of IBa relative to control"}, {"measurement": "Reduction of IBa (N-type VDCC barium current)", "setting": "Y1 receptor", "result": "3–9%"}, {"measurement": "Rise in MAP", "setting": "[7]; mouse models", "result": 38, "unit": "mmHg"}, {"measurement": "Pressor effect in MC3-R and MC4-R knockout mice, in words", "setting": "[7]; peripheral administration", "result": "these effects can be elicited following peripheral administration of γ-MSH in the MC3-R and MC4-R knockout mice"}, {"measurement": "Competition for rat Y1 receptor binding, in words", "setting": "rat Y1 receptor", "result": "failed to compete with iodinated PYY for binding to the rat Y1 receptor; also recorded: Neither γ-MSH nor FMRFamide (a model RFamide peptide) competed with iodinated PYY for binding to the rat Y1 receptors"}]}
{"compound": "neuropeptide Y [NPY]", "values": [{"measurement": "Duration of pressor response, in words", "setting": "[4]; IV NPY 5 nmol compared to γ-MSH, P <0.05, n = 7", "result": "lasted significantly longer than that of γ-MSH for a relatively similar change in peak MAP"}, {"measurement": "Cardiovascular response (MAP and HR), in words", "setting": "[4]", "result": "during the mid-point of the pressor response the bradycardia reversed to a cardioaccelerator response; also recorded: produces prolonged pressor and HR responses"}, {"measurement": "Increase in MAP", "setting": "[4]; mean ± standard error", "result": "41.9 ± 4", "unit": "mmHg"}, {"measurement": "Peak bradycardia response", "setting": "[4]; [11]", "result": "−53 ± 18", "unit": "BPM"}, {"measurement": "Peak tachycardia response", "setting": "[4]; [11]", "result": "49 ± 14", "unit": "BPM"}, {"measurement": "Baseline HR", "setting": "[4]; baseline of the NPY 5 nmol IV group, mean ± standard error", "result": "360 ± 11", "unit": "BPM"}, {"measurement": "Effect on N-type VDCC / IBa, in words", "setting": "Y1 receptor", "result": "significant decreases in N-type VDCC activity; also recorded: significantly different from the effects of γ-MSH or γ-MSH6–12"}, {"measurement": "Reduction of IBa (N-type VDCC barium current)", "setting": "Y1 receptor", "result": "~50", "unit": "%"}, {"measurement": "SNSR1 binding, in words", "setting": "[8]", "result": "nanomolar NPY binding"}]}
